Activity calls are given as the source filed them. For most assays here, no stated cut-off is given here; in the data, actives have a measured Kd and inactives only a lower limit.
How the values were obtained:
[1] = target: Ribosomal protein S6 kinase alpha-4 (Homo sapiens, UniProt O75676)
[2] = target: Ephrin type-A receptor 5 (Homo sapiens, UniProt P54756)
[3] = target: T1, Bifunctional phosphoribosylaminoimidazole carboxylase/phosphoribosylaminoimidazole succinocarboxamide synthetase (Homo sapiens, UniProt P22234)
T1 sequence (P22234 whole entry): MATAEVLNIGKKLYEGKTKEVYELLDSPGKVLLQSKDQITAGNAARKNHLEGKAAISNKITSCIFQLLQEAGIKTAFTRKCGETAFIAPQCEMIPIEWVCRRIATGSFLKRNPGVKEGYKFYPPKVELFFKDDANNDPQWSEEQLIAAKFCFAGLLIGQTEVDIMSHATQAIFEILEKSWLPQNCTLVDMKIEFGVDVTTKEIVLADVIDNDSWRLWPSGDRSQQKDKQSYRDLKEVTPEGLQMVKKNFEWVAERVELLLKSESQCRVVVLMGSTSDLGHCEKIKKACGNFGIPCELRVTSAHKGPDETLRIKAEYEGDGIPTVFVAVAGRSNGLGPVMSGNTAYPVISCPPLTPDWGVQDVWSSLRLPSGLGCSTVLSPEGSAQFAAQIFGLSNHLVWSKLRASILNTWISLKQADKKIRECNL

[4] = target: T2, Long-chain-fatty-acid--CoA ligase 5 (Homo sapiens, UniProt Q9ULC5)
T2 sequence (Q9ULC5 whole entry): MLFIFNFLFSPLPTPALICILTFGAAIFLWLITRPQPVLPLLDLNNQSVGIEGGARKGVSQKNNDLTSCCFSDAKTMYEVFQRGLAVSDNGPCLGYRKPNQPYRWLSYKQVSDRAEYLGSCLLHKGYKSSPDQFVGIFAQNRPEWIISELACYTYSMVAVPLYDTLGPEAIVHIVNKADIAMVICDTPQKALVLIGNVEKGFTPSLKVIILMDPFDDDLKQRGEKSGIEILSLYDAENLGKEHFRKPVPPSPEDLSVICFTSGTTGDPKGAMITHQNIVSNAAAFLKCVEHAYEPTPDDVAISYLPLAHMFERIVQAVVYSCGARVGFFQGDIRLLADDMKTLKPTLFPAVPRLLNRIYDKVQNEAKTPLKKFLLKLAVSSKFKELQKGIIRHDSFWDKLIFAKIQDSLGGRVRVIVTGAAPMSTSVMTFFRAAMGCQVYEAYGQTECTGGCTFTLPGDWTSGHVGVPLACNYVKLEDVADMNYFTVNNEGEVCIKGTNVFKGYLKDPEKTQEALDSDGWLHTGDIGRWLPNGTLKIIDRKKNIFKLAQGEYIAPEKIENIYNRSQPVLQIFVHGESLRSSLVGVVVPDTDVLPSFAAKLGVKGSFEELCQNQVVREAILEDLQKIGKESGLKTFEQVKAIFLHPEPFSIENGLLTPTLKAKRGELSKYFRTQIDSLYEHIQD

[5] = target: Calcium/calmodulin-dependent protein kinase kinase 2 (Homo sapiens, UniProt Q96RR4)
[6] = target: Calcium/calmodulin-dependent protein kinase type II subunit delta (Homo sapiens, UniProt Q13557)
[7] = target: T3, Activin receptor type-1B (Homo sapiens, UniProt P36896)
T3 sequence (P36896 whole entry): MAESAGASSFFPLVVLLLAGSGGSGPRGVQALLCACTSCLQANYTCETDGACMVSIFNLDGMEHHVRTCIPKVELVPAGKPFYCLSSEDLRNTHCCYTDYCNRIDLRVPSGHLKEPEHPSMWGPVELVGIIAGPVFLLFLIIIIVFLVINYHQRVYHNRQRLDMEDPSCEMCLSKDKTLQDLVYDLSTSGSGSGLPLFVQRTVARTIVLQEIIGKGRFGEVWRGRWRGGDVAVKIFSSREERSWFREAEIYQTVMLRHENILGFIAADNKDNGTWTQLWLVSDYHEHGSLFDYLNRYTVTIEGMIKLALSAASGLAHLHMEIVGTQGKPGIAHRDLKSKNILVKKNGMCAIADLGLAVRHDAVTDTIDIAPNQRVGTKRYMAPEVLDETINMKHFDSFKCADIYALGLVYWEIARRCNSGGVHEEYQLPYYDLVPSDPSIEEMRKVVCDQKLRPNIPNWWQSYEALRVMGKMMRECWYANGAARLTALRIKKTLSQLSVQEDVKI

[8] = target: Mitogen-activated protein kinase kinase kinase 4 (Homo sapiens, UniProt Q9Y6R4)
[9] = target: Myosin-14 (Homo sapiens, UniProt Q7Z406)
[10] = target: Mitogen-activated protein kinase kinase kinase 1 (Homo sapiens, UniProt Q13233)

Sequence of Myosin-14 (Q7Z406 whole entry): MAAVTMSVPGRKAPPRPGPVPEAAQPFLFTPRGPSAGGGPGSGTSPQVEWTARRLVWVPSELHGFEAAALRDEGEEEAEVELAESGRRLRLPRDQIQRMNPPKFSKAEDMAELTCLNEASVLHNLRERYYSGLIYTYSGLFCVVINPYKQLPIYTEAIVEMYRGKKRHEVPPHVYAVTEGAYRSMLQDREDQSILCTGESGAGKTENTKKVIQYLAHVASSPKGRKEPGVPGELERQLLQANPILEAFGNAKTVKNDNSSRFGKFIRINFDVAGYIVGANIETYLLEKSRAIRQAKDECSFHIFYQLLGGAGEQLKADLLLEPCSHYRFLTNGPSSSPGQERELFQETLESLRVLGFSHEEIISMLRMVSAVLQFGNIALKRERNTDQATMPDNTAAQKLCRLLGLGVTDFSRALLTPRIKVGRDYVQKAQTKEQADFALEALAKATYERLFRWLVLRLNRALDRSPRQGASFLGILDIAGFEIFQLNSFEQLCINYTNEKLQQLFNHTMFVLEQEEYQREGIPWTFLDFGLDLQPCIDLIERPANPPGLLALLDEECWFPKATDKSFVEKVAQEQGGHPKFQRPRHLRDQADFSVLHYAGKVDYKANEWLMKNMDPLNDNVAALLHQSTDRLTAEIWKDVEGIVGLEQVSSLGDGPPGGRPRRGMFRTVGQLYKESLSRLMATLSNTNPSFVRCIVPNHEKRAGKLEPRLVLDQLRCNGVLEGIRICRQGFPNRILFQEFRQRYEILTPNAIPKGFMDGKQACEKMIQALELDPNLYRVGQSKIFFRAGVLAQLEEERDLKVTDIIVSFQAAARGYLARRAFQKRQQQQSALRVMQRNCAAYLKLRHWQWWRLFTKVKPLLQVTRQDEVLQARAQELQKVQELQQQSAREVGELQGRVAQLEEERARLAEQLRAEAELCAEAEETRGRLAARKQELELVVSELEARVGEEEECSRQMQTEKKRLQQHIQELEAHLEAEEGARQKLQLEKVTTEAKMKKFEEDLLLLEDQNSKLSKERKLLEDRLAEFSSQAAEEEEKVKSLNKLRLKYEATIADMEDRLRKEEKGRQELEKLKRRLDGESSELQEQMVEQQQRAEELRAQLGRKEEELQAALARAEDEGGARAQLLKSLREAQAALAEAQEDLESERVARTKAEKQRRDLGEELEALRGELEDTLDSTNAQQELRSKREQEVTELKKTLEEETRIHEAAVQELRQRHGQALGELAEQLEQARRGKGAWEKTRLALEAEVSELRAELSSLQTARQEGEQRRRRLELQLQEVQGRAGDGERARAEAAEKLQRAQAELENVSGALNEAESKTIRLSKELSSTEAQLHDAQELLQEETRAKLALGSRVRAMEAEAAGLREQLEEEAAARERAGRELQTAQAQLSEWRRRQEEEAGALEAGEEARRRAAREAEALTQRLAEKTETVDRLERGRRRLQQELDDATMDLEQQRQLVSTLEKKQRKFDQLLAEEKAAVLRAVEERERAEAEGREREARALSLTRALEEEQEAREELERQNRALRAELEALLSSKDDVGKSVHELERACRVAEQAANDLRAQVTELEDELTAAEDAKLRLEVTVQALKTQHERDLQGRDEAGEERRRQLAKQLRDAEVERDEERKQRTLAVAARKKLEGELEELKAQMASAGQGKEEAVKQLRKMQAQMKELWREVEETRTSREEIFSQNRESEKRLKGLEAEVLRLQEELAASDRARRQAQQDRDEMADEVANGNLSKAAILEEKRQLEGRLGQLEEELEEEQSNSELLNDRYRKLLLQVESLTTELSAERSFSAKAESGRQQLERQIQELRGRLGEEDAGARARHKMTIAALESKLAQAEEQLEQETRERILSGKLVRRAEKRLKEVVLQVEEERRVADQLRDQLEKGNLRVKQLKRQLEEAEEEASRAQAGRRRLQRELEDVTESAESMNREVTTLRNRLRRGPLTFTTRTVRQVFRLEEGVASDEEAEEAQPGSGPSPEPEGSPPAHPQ
Sequence of Ephrin type-A receptor 5 (P54756 whole entry): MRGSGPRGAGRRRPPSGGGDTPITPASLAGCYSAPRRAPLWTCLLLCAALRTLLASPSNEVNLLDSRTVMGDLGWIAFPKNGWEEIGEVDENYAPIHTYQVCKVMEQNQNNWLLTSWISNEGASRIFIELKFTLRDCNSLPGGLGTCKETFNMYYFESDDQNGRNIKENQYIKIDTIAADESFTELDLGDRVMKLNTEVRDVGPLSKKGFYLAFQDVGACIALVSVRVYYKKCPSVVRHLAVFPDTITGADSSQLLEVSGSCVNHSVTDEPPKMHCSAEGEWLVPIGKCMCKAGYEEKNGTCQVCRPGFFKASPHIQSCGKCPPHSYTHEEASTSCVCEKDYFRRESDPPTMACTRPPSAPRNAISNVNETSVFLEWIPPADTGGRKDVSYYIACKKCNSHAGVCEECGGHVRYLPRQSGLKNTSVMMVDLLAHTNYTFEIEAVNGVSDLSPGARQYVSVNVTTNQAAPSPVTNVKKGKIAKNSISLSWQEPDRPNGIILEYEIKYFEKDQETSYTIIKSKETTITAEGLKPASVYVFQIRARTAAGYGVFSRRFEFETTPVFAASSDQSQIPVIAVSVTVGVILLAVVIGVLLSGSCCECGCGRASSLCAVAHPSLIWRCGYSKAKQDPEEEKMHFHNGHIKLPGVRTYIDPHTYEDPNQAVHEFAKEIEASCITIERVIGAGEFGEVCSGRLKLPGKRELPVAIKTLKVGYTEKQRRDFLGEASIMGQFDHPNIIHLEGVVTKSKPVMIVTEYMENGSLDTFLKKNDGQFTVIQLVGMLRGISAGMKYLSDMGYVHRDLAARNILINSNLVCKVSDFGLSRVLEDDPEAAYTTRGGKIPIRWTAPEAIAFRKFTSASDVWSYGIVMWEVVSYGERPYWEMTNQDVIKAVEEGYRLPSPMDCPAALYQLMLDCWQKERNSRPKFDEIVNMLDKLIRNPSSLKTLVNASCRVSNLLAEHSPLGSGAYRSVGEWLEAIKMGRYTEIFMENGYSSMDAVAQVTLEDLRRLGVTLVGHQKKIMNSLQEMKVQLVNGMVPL
Sequence of Mitogen-activated protein kinase kinase kinase 4 (Q9Y6R4 whole entry): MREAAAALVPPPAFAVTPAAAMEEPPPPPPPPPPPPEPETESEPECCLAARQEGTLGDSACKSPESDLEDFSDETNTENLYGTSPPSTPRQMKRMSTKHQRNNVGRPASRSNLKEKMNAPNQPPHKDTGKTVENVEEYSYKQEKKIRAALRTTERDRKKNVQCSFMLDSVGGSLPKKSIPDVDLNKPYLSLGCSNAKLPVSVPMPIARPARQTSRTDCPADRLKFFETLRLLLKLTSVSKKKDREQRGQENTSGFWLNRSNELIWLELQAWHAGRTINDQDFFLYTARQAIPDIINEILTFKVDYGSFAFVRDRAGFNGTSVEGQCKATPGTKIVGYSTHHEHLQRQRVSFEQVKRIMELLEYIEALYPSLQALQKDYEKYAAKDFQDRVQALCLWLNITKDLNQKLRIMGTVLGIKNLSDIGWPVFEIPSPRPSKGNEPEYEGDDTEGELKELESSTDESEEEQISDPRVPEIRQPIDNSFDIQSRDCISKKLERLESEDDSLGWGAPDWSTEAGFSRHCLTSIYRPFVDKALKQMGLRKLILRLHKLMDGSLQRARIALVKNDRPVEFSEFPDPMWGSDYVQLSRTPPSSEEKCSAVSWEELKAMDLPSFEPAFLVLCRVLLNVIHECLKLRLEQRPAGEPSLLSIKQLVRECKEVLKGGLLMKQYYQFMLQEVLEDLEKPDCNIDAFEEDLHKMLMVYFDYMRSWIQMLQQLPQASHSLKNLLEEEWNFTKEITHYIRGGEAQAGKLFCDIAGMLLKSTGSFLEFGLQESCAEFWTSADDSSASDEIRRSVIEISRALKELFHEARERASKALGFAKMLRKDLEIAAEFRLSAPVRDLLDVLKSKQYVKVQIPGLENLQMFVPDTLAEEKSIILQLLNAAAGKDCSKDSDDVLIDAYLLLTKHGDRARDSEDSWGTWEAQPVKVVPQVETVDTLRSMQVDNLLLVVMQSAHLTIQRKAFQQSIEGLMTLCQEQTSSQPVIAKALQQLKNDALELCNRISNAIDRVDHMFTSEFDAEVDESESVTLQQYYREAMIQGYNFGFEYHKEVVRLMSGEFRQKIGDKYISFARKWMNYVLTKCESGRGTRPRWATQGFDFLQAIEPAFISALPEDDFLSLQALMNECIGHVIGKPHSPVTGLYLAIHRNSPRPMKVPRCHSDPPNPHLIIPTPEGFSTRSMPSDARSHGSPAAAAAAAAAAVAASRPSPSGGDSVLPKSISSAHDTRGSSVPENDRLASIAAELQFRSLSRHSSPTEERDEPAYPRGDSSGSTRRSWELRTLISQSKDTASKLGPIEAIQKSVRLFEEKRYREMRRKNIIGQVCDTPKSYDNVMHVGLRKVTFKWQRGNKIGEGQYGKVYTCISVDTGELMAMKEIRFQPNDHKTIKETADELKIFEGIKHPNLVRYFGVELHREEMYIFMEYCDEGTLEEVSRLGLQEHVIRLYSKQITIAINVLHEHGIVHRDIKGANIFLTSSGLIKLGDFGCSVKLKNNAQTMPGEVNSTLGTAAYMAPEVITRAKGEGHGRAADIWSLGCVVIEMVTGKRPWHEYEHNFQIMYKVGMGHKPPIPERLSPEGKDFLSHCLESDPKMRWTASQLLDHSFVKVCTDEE
Sequence of Calcium/calmodulin-dependent protein kinase type II subunit delta (Q13557 whole entry): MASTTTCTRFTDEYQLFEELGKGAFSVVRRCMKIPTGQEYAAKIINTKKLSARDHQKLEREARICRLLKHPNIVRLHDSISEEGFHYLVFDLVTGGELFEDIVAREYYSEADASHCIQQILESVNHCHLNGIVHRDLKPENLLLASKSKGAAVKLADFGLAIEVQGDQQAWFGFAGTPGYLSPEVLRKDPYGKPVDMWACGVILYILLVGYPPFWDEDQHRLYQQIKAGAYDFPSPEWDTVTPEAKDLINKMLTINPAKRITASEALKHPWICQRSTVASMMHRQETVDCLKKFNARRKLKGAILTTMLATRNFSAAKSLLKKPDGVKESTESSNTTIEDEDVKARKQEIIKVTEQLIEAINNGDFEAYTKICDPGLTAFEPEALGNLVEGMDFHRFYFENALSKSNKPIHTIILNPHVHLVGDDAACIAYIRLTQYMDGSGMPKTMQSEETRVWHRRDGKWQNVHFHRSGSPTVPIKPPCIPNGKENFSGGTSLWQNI

| Kd [1] | Kd [2] | Kd [3] | Kd [4] | Kd [5] | Kd [6] | Kd [7] | Kd [8] | Kd [9] | Kd [10] | SMILES |
| --- | --- | --- | --- | --- | --- | --- | --- | --- | --- | --- |
| > 30 µM (inactive) | > 30 µM (inactive) | > 30 µM (inactive) | > 30 µM (inactive) | > 30 µM (inactive) | > 30 µM (inactive) | > 30 µM (inactive) | > 30 µM (inactive) | > 30 µM (inactive) | > 30 µM (inactive) | COc1ccc2c(OCc3nnc4ccc(-c5ccccc5)nn34)ccnc2c1 [AMG-208] |
| > 30 µM (inactive) | > 30 µM (inactive) | > 30 µM (inactive) | > 30 µM (inactive) | > 30 µM (inactive) | > 30 µM (inactive) | > 30 µM (inactive) | > 30 µM (inactive) | > 30 µM (inactive) | > 30 µM (inactive) | S=C(NCc1ccc2c(c1)OCO2)N1CCN(c2ncnc3c2oc2ccccc23)CC1 [AMUVATINIB] |
| > 30 µM (inactive) | > 30 µM (inactive) | > 30 µM (inactive) | > 30 µM (inactive) |  | > 30 µM (inactive) | > 30 µM (inactive) | > 30 µM (inactive) | > 30 µM (inactive) | > 30 µM (inactive) | CCN(CCCOc1ccc2c(Nc3cc(CC(=O)Nc4cccc(F)c4)n[nH]3)ncnc2c1)CCOP(=O)(O)O [BARASERTIB] |
| > 30 µM (inactive) | > 30 µM (inactive) | > 30 µM (inactive) | > 30 µM (inactive) | > 30 µM (inactive) | 0.703 µM (active) | > 30 µM (inactive) | > 30 µM (inactive) | > 30 µM (inactive) | > 30 µM (inactive) | COc1cccc(Nc2ncnn3ccc(CN4CC[C@@H](N)[C@H](O)C4)c23)c1 [BMS-690514] |
| > 30 µM (inactive) | > 30 µM (inactive) | > 30 µM (inactive) | > 30 µM (inactive) | > 30 µM (inactive) | > 30 µM (inactive) | > 30 µM (inactive) | > 30 µM (inactive) | > 30 µM (inactive) | > 30 µM (inactive) | COc1cc2nccc(Oc3ccc(NC(=O)C4(C(=O)Nc5ccc(F)cc5)CC4)cc3)c2cc1OC [CABOZANTINIB] |
| > 30 µM (inactive) | > 30 µM (inactive) | > 30 µM (inactive) | > 30 µM (inactive) | > 30 µM (inactive) | > 30 µM (inactive) | > 30 µM (inactive) | > 30 µM (inactive) | > 30 µM (inactive) | > 30 µM (inactive) | c1cc(OCCN2CCCCC2)cc(-c2n[nH]c3ccc(-c4nc[nH]n4)cc23)c1 [CC-401] |
| > 30 µM (inactive) | > 30 µM (inactive) | > 30 µM (inactive) | > 30 µM (inactive) | > 30 µM (inactive) | > 30 µM (inactive) | > 30 µM (inactive) | > 30 µM (inactive) | > 30 µM (inactive) | > 30 µM (inactive) | COc1cc2ncnc(Nc3ccc(F)c(Cl)c3)c2cc1NC(=O)/C=C/CN1CCCCC1 [DACOMITINIB ANHYDROUS] |
| > 30 µM (inactive) | > 30 µM (inactive) | > 30 µM (inactive) | > 30 µM (inactive) | > 30 µM (inactive) | > 30 µM (inactive) | > 30 µM (inactive) | > 30 µM (inactive) | > 30 µM (inactive) | > 30 µM (inactive) | Cn1c(=O)n(-c2ccc(C(C)(C)C#N)cc2)c2c3cc(-c4cnc5ccccc5c4)ccc3ncc21 [DACTOLISIB] |
| > 30 µM (inactive) | > 30 µM (inactive) | > 30 µM (inactive) | > 30 µM (inactive) | > 30 µM (inactive) | 20.3 µM (active) | > 30 µM (inactive) | > 30 µM (inactive) | > 30 µM (inactive) | > 30 µM (inactive) | CC[C@@](C)(Nc1ccnc(-c2c[nH]c3ncccc23)n1)C(=O)NCC(F)(F)F [DECERNOTINIB] |
| > 30 µM (inactive) | > 30 µM (inactive) | > 30 µM (inactive) | > 30 µM (inactive) | > 30 µM (inactive) | > 30 µM (inactive) | > 30 µM (inactive) | > 30 µM (inactive) |  | > 30 µM (inactive) | O[C@H]1CC[C@H](Nc2ncc3nc(Nc4c(F)cc(F)cc4F)n([C@H]4CCOC4)c3n2)CC1 [TANZISERTIB] |
| > 30 µM (inactive) | > 30 µM (inactive) | > 30 µM (inactive) | > 30 µM (inactive) | > 30 µM (inactive) | > 30 µM (inactive) | > 30 µM (inactive) | > 30 µM (inactive) |  | > 30 µM (inactive) | CNC(=O)c1cc(COc2nnc(Nc3ccc(Cl)cc3)c3ccoc23)ccn1 [TELATINIB] |

| SMILES | Kd [1] | Kd [2] | Kd [3] | Kd [4] | Kd [5] | Kd [6] | Kd [7] | Kd [8] | Kd [9] | Kd [10] |
| --- | --- | --- | --- | --- | --- | --- | --- | --- | --- | --- |
| Cn1cc(-c2[nH]c3cc(NC(=O)[C@H](N)C4CCCCC4)cc4c3c2C=NNC4=O)cn1 | 1.05 µM (active) | > 30 µM (inactive) | > 30 µM (inactive) | > 30 µM (inactive) | > 30 µM (inactive) | > 30 µM (inactive) | > 30 µM (inactive) | > 30 µM (inactive) | > 30 µM (inactive) |  |
| Cc1c(NC(=O)OC[C@@H]2COCCN2)cn2ncnc(Nc3ccc4c(cnn4Cc4cccc(F)c4)c3)c12 [AC-480] | > 30 µM (inactive) | > 30 µM (inactive) | > 30 µM (inactive) | > 30 µM (inactive) | > 30 µM (inactive) | > 30 µM (inactive) | > 30 µM (inactive) | > 30 µM (inactive) | > 30 µM (inactive) | > 30 µM (inactive) |
| C=CCn1c(=O)c2cnc(Nc3ccc(N4CCN(C)CC4)cc3)nc2n1-c1cccc(C(C)(C)O)n1 [ADAVOSERTIB] | > 30 µM (inactive) | > 30 µM (inactive) | > 30 µM (inactive) | > 30 µM (inactive) | > 30 µM (inactive) | > 30 µM (inactive) | > 30 µM (inactive) | 0.052 µM (active) | > 30 µM (inactive) | > 30 µM (inactive) |
| NC[C@@](O)(c1ccc(Cl)cc1)c1ccc(-c2cn[nH]c2)cc1 [AT-13148] | > 30 µM (inactive) |  | > 30 µM (inactive) | > 30 µM (inactive) | > 30 µM (inactive) | > 30 µM (inactive) | > 30 µM (inactive) | > 30 µM (inactive) | > 30 µM (inactive) | > 30 µM (inactive) |
| CC1(COc2ccc3c(c2)ncn3-c2ccc3cccc(N4CCC(N)CC4)c3n2)COC1 [CRENOLANIB] | > 30 µM (inactive) | > 30 µM (inactive) | > 30 µM (inactive) | > 30 µM (inactive) | 0.135 µM (active) | 0.821 µM (active) | > 30 µM (inactive) | > 30 µM (inactive) | > 30 µM (inactive) | > 30 µM (inactive) |
| COCCN1CCN(Cc2ccc(-c3n[nH]c4c3C(=O)c3c(NC(=O)NN5CCOCC5)cccc3-4)cc2)CC1 [RGB-286638] | > 30 µM (inactive) | > 30 µM (inactive) | > 30 µM (inactive) | > 30 µM (inactive) | > 30 µM (inactive) | > 30 µM (inactive) | > 30 µM (inactive) | > 30 µM (inactive) |  | > 30 µM (inactive) |
